Assay results from patent US7235691B2, “Crystalline forms of modafinil” (priority 2000, dated 2007).

How the values were obtained:
[1] = Heating of crystalline forms, analysed by x-ray powder diffraction; type: physicochemical; settings: for crystalline form after heating in an oven: about 30 minutes at about 100° C.; for chemical decomposition on heating: heating/drying at about 100° C.
Method: X-ray diffraction data were acquired using a Philips powder X-ray diffractometer, Goniometer model 1050/70 at a scanning speed of 2° per minute, with a CUKα radiation of λ=1.5418 Å. The sample was gently ground and dusted over a zero background quartz plate to give a thin layer.
Forms V and VI convert into modafinil Form I upon gentle heating to about 80° C. or above.
Modafinil Form I may be separated from solvents conventionally by filtering or decanting and then drying.
By Heating Modafinil Forms V or VI A small aliquot of Modafinil Forms V and VI are heated separately, for about 30 minutes, in an oven at about 100° C.

[2] = type: physicochemical; settings: for crystalline form conversion when suspended in water: time and temperature not stated; for crystalline form after suspension in distilled water: distilled water pH about 5.9, stirred about 24 hours at about 37° C.

Row | Compound | crystalline form after heating in an oven [1] | chemical decomposition on heating [1] | crystalline form conversion when suspended in water [2] | crystalline form after suspension in distilled water [2] | further results
1 | NC(=O)C[S+]([O-])C(c1ccccc1)c1ccccc1 (racemic) [Form VI, (±) 2-[(Diphenylmethyl)sulfinyl]acetamide] | determined to be Form I | without significant decomposition | – | – | –
2 | NC(=O)C[S+]([O-])C(c1ccccc1)c1ccccc1 (racemic) [Form II, (±) 2-[(Diphenylmethyl)sulfinyl]acetamide] | – | – | converted into Form I modafinil | – | –
3 | NC(=O)C[S+]([O-])C(c1ccccc1)c1ccccc1 (racemic) [Form V, (±) 2-[(Diphenylmethyl)sulfinyl]acetamide] | determined to be Form I | without significant decomposition | – | – | –
4 | NC(=O)C[S+]([O-])C(c1ccccc1)c1ccccc1 (racemic) [Form IV, (±) 2-[(Diphenylmethyl)sulfinyl]acetamide] | – | – | – | determined to be modafinil Form I | –
5 | NC(=O)C[S+]([O-])C(c1ccccc1)c1ccccc1 (racemic) [Form III, (±) 2-[(Diphenylmethyl)sulfinyl]acetamide] | – | – | converts into modafinil Form II | determined to be modafinil Form II | –
6 | NC(=O)C[S+]([O-])C(c1ccccc1)c1ccccc1 (racemic) [Form I, (±) 2-[(Diphenylmethyl)sulfinyl]acetamide, reference compound] | – | without undergoing significant chemical decomposition | – | – | crystalline form after drying at elevated temperature ([1]; dried at a temperature as high as 100° C.): without converting to another crystalline or amorphous form
